Results on 8 molecules are retold here after PubChem BioAssay (NCI).

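Growth conditions: 96-well plates. Treatment: test compound, 48 hours, 5 concentrations. Analysis: linear interpolation between bracketing concentrations; unreached endpoints set to highest concentration. The concentration for 50% growth inhibition is given as GI50. TGI: concentration producing complete growth inhibition.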

What all share (assay): NCI-60 cell line screen, 48 h
Experiment [1] deals with RXF 393 renal.
Experiment [2] deals with SK-MEL-2 melanoma.
Experiment [3] deals with RPMI-8226 leukemia.
The subject of experiment [4] is HL-60(TB) leukemia.
Experiment [5] relates to HOP-62 NSCLC.
Experiment [6] relates to OVCAR-8 ovarian.
Experiment [7] deals with UACC-257 melanoma.
Experiment [8] has as its system SW-620 colon.
For experiment [9], the system named is SK-MEL-5 melanoma.
Experiment [10] deals with IGROV1 ovarian.

`C=CC(=O)Nc1cc2c(Nc3ccc(F)c(Cl)c3)ncnc2cc1C#CC(C)(C)N1CCN(C)CC1`: the GI50 in experiment [1] is 0.837 µM; in experiment [2], 2.98 µM; in [3], 1.77 µM; in experiment [4], 1.88 µM; in experiment [5], 3.53 µM; in experiment [6] it was 1.85 µM. In addition, the GI50 is 3.96 µM in experiment [7], 2 µM in experiment [8], 4.69 µM in experiment [9] and 0.175 µM in experiment [10]. The TGI in experiment [1] was found to be 2.15 µM; in experiment [2], 5.54 µM; in [3], 5.17 µM; in [4], 5.08 µM; in experiment [5] it was 5.9 µM; in experiment [6], 5.35 µM. The TGI in experiment [7] turned out to be 5.56 µM; in [8], 4.61 µM; in experiment [9], 7.42 µM; in [10], 1.4 µM.

On to `COc1ccc(C2NC(=S)NC3=C2CCOc2c3ccc3ccccc23)cc1` (centres undefined), for which the GI50 was 1.57 µM in experiment [1]; more than 100 µM in experiment [2]; 12.8 µM in experiment [3]; 23.4 µM in experiment [4]; more than 100 µM in [5]; 32.6 µM in experiment [6]. For the same molecule, the GI50 in [7] was 16.4 µM; in experiment [8], more than 100 µM; in experiment [9] it was 18.2 µM; in experiment [10] it was more than 100 µM. In addition, the TGI in experiment [1] is 48 µM; in [2], more than 100 µM; in experiment [3] it was more than 100 µM; in experiment [4] it was more than 100 µM; in experiment [5], more than 100 µM; in [6] it was more than 100 µM. For the same molecule, the TGI in [7], in [8], in experiment [9] and in experiment [10] was more than 100 µM throughout.

Take `COc1ccccc1NC(=O)C1=C(C)NC(C)=C(C(=O)Nc2ccccc2OC)C1c1ccco1`: the TGI in experiment [1] was 10.6 µM; in experiment [2], 31.4 µM; in experiment [3], 76.1 µM; in experiment [4], 8.51 µM; in experiment [5], 74.6 µM; in experiment [6] it was more than 100 µM. In addition, the TGI in experiment [7] was 43.4 µM; in experiment [8], more than 100 µM; in experiment [9], 15.4 µM; in experiment [10] it was more than 100 µM.

Consider `CC[C@H]1OC(=O)[C@H](C)[C@@H](O[C@H]2C[C@@](C)(OC)[C@@H](O)[C@H](C)O2)[C@H](C)[C@@H](O[C@@H]2O[C@H](C)C[C@H](N(C)C)[C@H]2O)[C@](C)(OC)C/C(C)=C2/O[C@@]1(C)C=C2C`, for which the GI50 was 2.09 µM in experiment [1]; 1.85 µM in [2]; 1.9 µM in [3]; 1.86 µM in experiment [4]; 2.31 µM in [5]; 2.2 µM in [6]. Also, the GI50 was 1.83 µM in experiment [7], 1.78 µM in [8], 1.79 µM in [9] and 1.59 µM in experiment [10]. Also, the TGI turned out to be 3.75 µM in [1]; 3.73 µM in experiment [2]; 5.14 µM in experiment [3]; 4.16 µM in experiment [4]; 4.74 µM in experiment [5]; 5.75 µM in experiment [6]. Moreover, the TGI in [7] is 3.62 µM; in experiment [8] it was 3.42 µM; in experiment [9], 3.21 µM; in experiment [10], 3.03 µM.

On to `CCOC(=O)/C(=C\c1ccc2ccccc2c1)P(=O)(OCC)OCC`, for which the GI50 in experiment [1] is 1.82 µM; in [2], 2.16 µM; in [3], 2.27 µM; in experiment [4] it was 2.15 µM; in [5], 2.61 µM; in experiment [6], 3.26 µM. Also, the GI50 is 2.59 µM in experiment [7], 2.81 µM in [8], 2.55 µM in [9] and 3 µM in [10]. The TGI in experiment [1] is 3.46 µM; in [2], 5.22 µM; in experiment [3] it was 6.54 µM; in [4], 5.16 µM; in [5], 7.24 µM; in [6], 13.2 µM. Further, the TGI amounted to 7.14 µM in experiment [7], 10.4 µM in [8], 6.5 µM in experiment [9] and 8.94 µM in [10].

Consider `CC1(C)OC(=O)C(=C2CCC(C(=O)Nc3cccc(C(F)(F)F)c3)N2)C(=O)O1` (centres undefined), for which the TGI in [1], in experiment [2], in experiment [3], in experiment [4], in experiment [5] and in experiment [6] was more than 100 µM in each case. The TGI in experiment [7], in experiment [8], in experiment [9] and in [10] was more than 100 µM each time.

Take `COCC(C(=O)OC1C/C=C/C=C/C(=O)OC(C(C)C(O)C(C)CCC(OC(=O)C(C)N(C)C)C(C)C(OC(C)=O)C(C)/C=C/N(C)C=O)C/C=C/C(OC)CC(C)C/C=C(\C)C(OC)CCC(C)C(O)C1C)N(C)C` (centres undefined): the GI50 in [1], in [2], in experiment [3], in [4], in [5] and in experiment [6] was less than 0.0001 µM in each case. In addition, the GI50 in experiment [7], in experiment [8], in [9] and in experiment [10] was less than 0.0001 µM throughout. For the same molecule, the TGI is 0.0177 µM in experiment [1]; 0.00774 µM in experiment [2]; 0.0077 µM in experiment [3]; less than 0.0001 µM in [4]; 0.0013 µM in experiment [5]; more than 1 µM in experiment [7]. Besides, the TGI in experiment [8] was more than 1 µM; in experiment [9], 0.00144 µM; in experiment [10], 0.0144 µM.

With `COc1cccc(-c2nc3sccn3c2-c2ccnc(NCCCNS(=O)(=O)c3ccccc3)c2)c1`, the GI50 in experiment [1] is 5.79 µM; in experiment [2], 2.87 µM; in experiment [3] it was 1.61 µM; in experiment [4], 2.33 µM; in experiment [5], 3.43 µM; in [6] it was 2.99 µM. Also, the GI50 in experiment [7] was 3.57 µM; in [8], 3.81 µM; in experiment [9] it was 1.88 µM; in experiment [10], 3.14 µM. Moreover, the TGI in experiment [1] was more than 100 µM; in experiment [2] it was 8.85 µM; in experiment [3], 4.26 µM; in experiment [4], 5.63 µM; in experiment [5], more than 100 µM; in experiment [6], more than 100 µM. For the same molecule, the TGI was more than 100 µM in experiment [7], more than 100 µM in experiment [8], 3.77 µM in experiment [9] and more than 100 µM in experiment [10].
